Assay results from US20250163104A1, “MACROCYCLIC IMMUNOMODULATORS” (priority 2021, published 2025).
Where a SMILES comes first, the peptide text is derived from it. Bridges are numbered along the chain shown (N, C = ends). [ ]: non-standard residue; d: D form. The star is where a group is joined. ξ: configuration not given here. Ala(1-amidino-4-piperidyl) = N=C(N)N1CCC(C[C@H](N)C(=O)O)CC1; Phe(4-CH2NH2) = NCc1ccc(C[C@H](N)C(=O)O)cc1; Bip = N[C@@H](Cc1ccc(-c2ccccc2)cc1)C(=O)O; NMehArg = CN[C@@H](CCCCNC(=N)N)C(=O)O; NMehPhe = CN[C@@H](CCc1ccccc1)C(=O)O; 4Pal = N[C@@H](Cc1ccncc1)C(=O)O; Cha = N[C@@H](CC1CCCCC1)C(=O)O; Cit = NC(=O)NCCC[C@H](N)C(=O)O; Ile(3ξ) = CCC(C)[C@H](N)C(=O)O; Thr(3ξ) = CC(O)[C@H](N)C(=O)O; NMeDab = CN[C@@H](CCN)C(=O)O; Dap(Me) = CNC[C@H](N)C(=O)O; Carboxymethyl = O=C(O)C*; Orn = NCCC[C@H](N)C(=O)O; Dab = NCC[C@H](N)C(=O)O; Dap = NC[C@H](N)C(=O)O

These compounds were tested against T1, human PD-1 / PD-L1-Ig binding on Jurkat cell line over-expressing human PD-1 (Jurkat-PD-1) (Homo sapiens, UniProt Q15116) (assay: Jurkat-PD-1 Cell Binding High-Content Screening Assay (CBA)). Details: Jurkat-PD-1 cells, PE-labeled PD-L1-Ig 20 nM final; read-out: Jurkat HPD1_PDL1 IC50.
T1 construct: expressed in transfected cells; host or cells: Jurkat
Type: cell-based
In short: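 Jurkat cells over-expressing human PD-1, in DMEM/10% FCS, pre-incubated with compound 2 h at 37° C. PE-labeled human PD-L1-Ig (20 nM final) added for 1 h; cells fixed in paraformaldehyde with Hoechst 33342 nuclear stain, washed, and bound fluorescence quantified by high-content imaging.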

T1 sequence (Q15116 25-288): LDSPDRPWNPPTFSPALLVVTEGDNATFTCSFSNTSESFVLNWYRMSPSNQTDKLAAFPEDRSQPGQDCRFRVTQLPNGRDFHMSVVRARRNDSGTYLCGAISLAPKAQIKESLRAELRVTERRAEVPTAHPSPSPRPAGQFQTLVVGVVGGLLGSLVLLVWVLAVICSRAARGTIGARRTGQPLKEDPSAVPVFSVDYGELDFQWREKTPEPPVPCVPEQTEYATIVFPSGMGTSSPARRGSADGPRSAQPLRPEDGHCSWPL

| Compound | IC50 |
| --- | --- |
| CC(=O)NCCCC[C@@H]1NC(=O)[C@H](CCCNC(N)=O)NC(=O)[C@H](Cc2ccc(-c3ccccc3)cc2)NC(=O)[C@H](CC(C)C)NC(=O)[C@H](Cc2c[nH]c3ccccc23)NC(=O)[C@H](CC(N)=O)NC(=O)[C@H](Cc2ccc(OCC(=O)O)cc2)NC(=O)[C@H](Cc2ccccc2)NC(=O)CSC[C@@H](C(=O)N[C@@H](C)C(N)=O)NC(=O)[C@H](CO)NC(=O)[C@H](C(C)C)NC(=O)[C@H](CC2CCCCC2)NC(=O)[C@H](CC(N)=O)NC(=O)[C@@H](CC(C)C)NC1=O [Compound 2502] ({CH2CO}-FY(Carboxymethyl)NWL[Bip][Cit]K(Ac)[dL]N[Cha]VSCA-NH2; thioether N-14) | 50.8 nM |
| CC(C)C[C@@H]1NC(=O)[C@H](Cc2c[nH]c3ccccc23)NC(=O)[C@H](CC(=O)O)NC(=O)[C@H](Cc2ccc(CN)cc2)NC(=O)[C@H](Cc2ccccc2)NC(=O)CSC[C@@H](C(=O)N[C@@H](C)C(N)=O)NC(=O)[C@H](CO)NC(=O)[C@H](C(C)C)NC(=O)[C@H](CC2CCCCC2)NC(=O)[C@H](CN)NC(=O)[C@@H](CC(C)C)NC(=O)[C@H](CCCN)NC(=O)[C@H](CCCNC(N)=O)NC(=O)[C@H](Cc2ccc(-c3ccccc3)cc2)NC1=O [Compound 2503] ({CH2CO}-F[Phe(4-CH2NH2)]DWL[Bip][Cit][Orn][dL][Dap][Cha]VSCA-NH2; thioether N-14) | 33 nM |
| CC(C)C[C@H]1NC(=O)[C@H](CCCN)NC(=O)[C@H](CCCNC(N)=O)NC(=O)[C@H](Cc2ccc(-c3ccccc3)cc2)NC(=O)[C@H](C(C)C)NC(=O)[C@H](Cc2c[nH]c3ccccc23)NC(=O)[C@H](CC(=O)O)NC(=O)[C@H](Cc2ccc(OCC(=O)O)cc2)NC(=O)[C@H](CC2CCN(C(=N)N)CC2)NC(=O)CSC[C@@H](C(=O)N[C@@H](C)C(N)=O)NC(=O)[C@H](CO)NC(=O)[C@H](C(C)C)NC(=O)[C@H](CC2CCCCC2)NC(=O)[C@H](CN)NC1=O [Compound 2504] ({CH2CO}-[Ala(1-amidino-4-piperidyl)]Y(Carboxymethyl)DWV[Bip][Cit][Orn][dL][Dap][Cha]VSCA-NH2; thioether N-14) | 15.9 nM |
| CCC(C)[C@@H]1NC(=O)[C@H](Cc2ccc(-c3ccccc3)cc2)NC(=O)[C@H](C(C)C)NC(=O)[C@H](Cc2c[nH]c3ccccc23)NC(=O)[C@H](CC(=O)O)NC(=O)[C@H](Cc2ccc(O)cc2)NC(=O)[C@H](Cc2ccncc2)NC(=O)CSC[C@@H](C(=O)N[C@@H](C)C(N)=O)NC(=O)[C@H](C(C)O)NC(=O)[C@H](C(C)C)NC(=O)[C@H](CC2CCCCC2)NC(=O)[C@H](CC(N)=O)NC(=O)[C@@H](CC(C)C)NC(=O)[C@H](Cc2ccc(CN)cc2)NC1=O (stereo partly drawn) [Compound 2506] ({CH2CO}-[4Pal]YDWV[Bip][Ile(3ξ)][Phe(4-CH2NH2)][dL]N[Cha]V[Thr(3ξ)]CA-NH2; thioether N-14) | 70.6 nM |
| CCC(C)[C@@H]1NC(=O)[C@H](Cc2ccc(-c3ccccc3)cc2)NC(=O)[C@H](C(C)C)NC(=O)[C@H](Cc2c[nH]c3ccccc23)NC(=O)[C@H](CC(=O)O)NC(=O)[C@H](Cc2ccc(OCC(=O)O)cc2)NC(=O)[C@H](CCN)NC(=O)CSC[C@@H](C(=O)N[C@@H](C)C(N)=O)NC(=O)[C@H](C(C)O)NC(=O)[C@H](C(C)C)NC(=O)[C@H](CC(C)C)NC(=O)[C@H](CCN)NC(=O)[C@@H](CC(C)C)NC(=O)[C@H](CCCN)NC1=O (stereo partly drawn) [Compound 2507] ({CH2CO}-[Dab]Y(Carboxymethyl)DWV[Bip][Ile(3ξ)][Orn][dL][Dab]LV[Thr(3ξ)]CA-NH2; thioether N-14) | 20.8 nM |
| CC(C)C[C@H]1NC(=O)[C@H](CCCN)NC(=O)[C@H](C(C)C)NC(=O)[C@H](Cc2ccc(-c3ccccc3)cc2)NC(=O)[C@H](C(C)C)NC(=O)[C@H](Cc2c[nH]c3ccccc23)NC(=O)[C@H](CC(=O)O)NC(=O)[C@H](Cc2ccc(OCC(=O)O)cc2)NC(=O)[C@H](C(C)O)NC(=O)CSC[C@@H](C(=O)N[C@@H](C)C(N)=O)NC(=O)[C@H](C(C)O)NC(=O)[C@H](C(C)C)NC(=O)C(CC2CCCCC2)NC(=O)[C@H](CCN)NC1=O (stereo partly shown) [Compound 2511] | 5.1 nM |
| CCC(C)[C@@H]1NC(=O)[C@H](Cc2ccc(-c3ccccc3)cc2)NC(=O)[C@H](C(C)C)NC(=O)[C@H](Cc2c[nH]c3ccccc23)NC(=O)[C@H](CC(=O)O)NC(=O)[C@H](Cc2ccc(OCC(=O)O)cc2)NC(=O)[C@H](CNC)NC(=O)CSC[C@@H](C(=O)N[C@@H](C)C(N)=O)NC(=O)[C@H](C(C)O)NC(=O)[C@H](C(C)C)NC(=O)[C@H](CC(C)C)NC(=O)[C@H](CCN)NC(=O)[C@@H](CC(C)C)NC(=O)[C@H](CCCN)NC1=O (stereo partly drawn) [Compound 2512] ({CH2CO}-[Dap(Me)]Y(Carboxymethyl)DWV[Bip][Ile(3ξ)][Orn][dL][Dab]LV[Thr(3ξ)]CA-NH2; thioether N-14) | 10.8 nM |
| CC(C)C[C@H]1NC(=O)[C@H](CCCN)NC(=O)[C@H](C(C)C)NC(=O)[C@H](Cc2ccc(-c3ccccc3)cc2)NC(=O)[C@H](C(C)C)NC(=O)[C@H](Cc2c[nH]c3ccccc23)NC(=O)[C@H](CC(=O)O)NC(=O)[C@H](Cc2ccc(OCC(=O)O)cc2)NC(=O)[C@H](CCCCNC(=N)N)N(C)C(=O)CSC[C@@H](C(=O)N[C@@H](C)C(N)=O)NC(=O)[C@H](CO)NC(=O)[C@H](C(C)C)NC(=O)[C@H](CC2CCCCC2)NC(=O)[C@H](CCN)NC1=O [Compound 2513] ({CH2CO}-[NMehArg]Y(Carboxymethyl)DWV[Bip]V[Orn][dL][Dab][Cha]VSCA-NH2; thioether N-14) | 18 nM |
| CC(C)C[C@H]1NC(=O)[C@H](CCCN)NC(=O)[C@H](C(C)C)NC(=O)[C@H](Cc2ccc(-c3ccccc3)cc2)NC(=O)[C@H](C(C)C)NC(=O)[C@H](Cc2c[nH]c3ccccc23)NC(=O)[C@H](CC(=O)O)NC(=O)[C@H](Cc2ccc(OCC(=O)O)cc2)NC(=O)[C@H](CCO)NC(=O)CSC[C@@H](C(=O)N[C@@H](C)C(N)=O)NC(=O)[C@H](C(C)O)NC(=O)[C@H](C(C)C)NC(=O)[C@H](CC2CCCCC2)NC(=O)[C@H](CCN)NC1=O (stereo partly shown) [Compound 2514] | 5.4 nM |
| CNC[C@@H]1NC(=O)CSC[C@@H](C(=O)N[C@@H](C)C(N)=O)NC(=O)[C@H](C(C)O)NC(=O)[C@H](C(C)C)NC(=O)[C@H](CC2CCCCC2)NC(=O)[C@H](CCN)NC(=O)[C@@H](CC(C)C)NC(=O)[C@H](CCCN)NC(=O)[C@H](C(C)C)NC(=O)[C@H](Cc2ccc(-c3ccccc3)cc2)NC(=O)[C@H](C(C)C)NC(=O)[C@H](Cc2c[nH]c3ccccc23)NC(=O)[C@H](CC(=O)O)NC(=O)[C@H](Cc2ccc(OCC(=O)O)cc2)NC1=O (stereo partly shown) [Compound 2515] | 16.3 nM |
| CC(C)C[C@H]1NC(=O)[C@H](CCCN)NC(=O)[C@H](C(C)C)NC(=O)[C@H](Cc2ccc(-c3ccccc3)cc2)NC(=O)[C@H](C(C)C)NC(=O)[C@H](Cc2c[nH]c3ccccc23)NC(=O)[C@H](CC(=O)O)NC(=O)[C@H](Cc2ccc(OCC(=O)O)cc2)NC(=O)[C@H](CCc2ccccc2)N(C)C(=O)CSC[C@@H](C(=O)N[C@@H](C)C(N)=O)NC(=O)[C@H](CO)NC(=O)[C@H](C(C)C)NC(=O)[C@H](CC2CCCCC2)NC(=O)[C@H](CCN)NC1=O [Compound 2516] ({CH2CO}-[NMehPhe]Y(Carboxymethyl)DWV[Bip]V[Orn][dL][Dab][Cha]VSCA-NH2; thioether N-14) | 10 nM |
| CCC(C)[C@@H]1NC(=O)[C@H](Cc2ccc(-c3ccccc3)cc2)NC(=O)[C@H](C(C)C)NC(=O)[C@H](Cc2c[nH]c3ccccc23)NC(=O)[C@H](CC(=O)O)NC(=O)[C@H](Cc2ccc(OCC(=O)O)cc2)NC(=O)[C@H](CCN)N(C)C(=O)CSC[C@@H](C(=O)N[C@@H](C)C(N)=O)NC(=O)[C@H](CO)NC(=O)[C@H](C(C)C)NC(=O)[C@H](CC2CCCCC2)NC(=O)[C@H](CCN)NC(=O)[C@@H](CC(C)C)NC(=O)[C@H](CCCN)NC1=O (stereo partly drawn) [Compound 2517] ({CH2CO}-[NMeDab]Y(Carboxymethyl)DWV[Bip][Ile(3ξ)][Orn][dL][Dab][Cha]VSCA-NH2; thioether N-14) | 3.4 nM |
| CCC(C)[C@@H]1NC(=O)[C@H](Cc2ccc(-c3ccccc3)cc2)NC(=O)[C@H](C(C)C)NC(=O)[C@H](Cc2c[nH]c3ccccc23)NC(=O)[C@H](CC(=O)O)NC(=O)[C@H](Cc2ccc(OCC(=O)O)cc2)NC(=O)[C@H](Cc2ccncc2)NC(=O)CSC[C@@H](C(=O)N[C@@H](C)C(N)=O)NC(=O)[C@H](C(C)O)NC(=O)[C@H](C(C)C)NC(=O)[C@H](CC2CCCCC2)NC(=O)[C@H](CCN)NC(=O)[C@@H](CC(C)C)NC(=O)[C@H](CCCN)NC1=O (stereo partly shown) [Compound 2519] | 6.5 nM |
| CCC(C)[C@@H]1NC(=O)[C@H](Cc2ccc(-c3ccccc3)cc2)NC(=O)[C@H](C(C)C)NC(=O)[C@H](Cc2c[nH]c3ccccc23)NC(=O)[C@H](CC(=O)O)NC(=O)[C@H](Cc2ccc(OCC(=O)O)cc2)NC(=O)[C@H](CN)NC(=O)CSC[C@@H](C(=O)N[C@@H](C)C(N)=O)NC(=O)[C@H](C(C)O)NC(=O)[C@H](C(C)C)NC(=O)[C@H](CC2CCCCC2)NC(=O)[C@H](CCN)NC(=O)[C@@H](CC(C)C)NC(=O)[C@H](CCCN)NC1=O (stereo partly shown) [Compound 2520] | 10.5 nM |
| CCC(C)[C@@H]1NC(=O)[C@H](Cc2ccc(-c3ccccc3)cc2)NC(=O)[C@H](C(C)C)NC(=O)[C@H](Cc2c[nH]c3ccccc23)NC(=O)[C@H](CC(=O)O)NC(=O)[C@H](Cc2ccc(OCC(=O)O)cc2)NC(=O)[C@H](Cc2cccc3ccccc23)NC(=O)CSC[C@@H](C(=O)N[C@@H](C)C(N)=O)NC(=O)[C@H](C(C)O)NC(=O)[C@H](C(C)C)NC(=O)[C@H](CC2CCCCC2)NC(=O)[C@H](CCN)NC(=O)[C@@H](CC(C)C)NC(=O)[C@H](CCCN)NC1=O (stereo partly shown) [Compound 2521] | 38.1 nM |
| CC(C)C[C@H]1NC(=O)[C@H](CCCN)NC(=O)[C@H](C(C)C)NC(=O)[C@H](Cc2ccc(-c3ccccc3)cc2)NC(=O)[C@H](C(C)C)NC(=O)[C@H](Cc2c[nH]c3ccccc23)NC(=O)[C@H](CC(=O)O)NC(=O)[C@H](Cc2ccc(OCC(=O)O)cc2)NC(=O)[C@H](Cc2ccncc2)NC(=O)CSC[C@@H](C(=O)N[C@@H](C)C(N)=O)NC(=O)[C@H](C(C)O)NC(=O)[C@H](C(C)C)NC(=O)[C@H](CC2CCCCC2)NC(=O)[C@H](CCN)NC1=O (stereo partly shown) [Compound 2522] | 6.9 nM |
